Source: US11878063B2, “Engineered ligands and uses thereof” (Children's Medical Center Corporation, priority 2019, dated 2024)

Experiments:
human PTHR1 [1] = biological target: T1, human PTHR1 (Homo sapiens, UniProt Q03431); experiment: cAMP induction (cAMP-responsive luciferase) in HEK293 cells stably expressing human PTHR1; format: cell-based; settings: maximal cAMP response, normalized
T1 construct: expressed in transfected cells
T1 sequence (Q03431 27-593): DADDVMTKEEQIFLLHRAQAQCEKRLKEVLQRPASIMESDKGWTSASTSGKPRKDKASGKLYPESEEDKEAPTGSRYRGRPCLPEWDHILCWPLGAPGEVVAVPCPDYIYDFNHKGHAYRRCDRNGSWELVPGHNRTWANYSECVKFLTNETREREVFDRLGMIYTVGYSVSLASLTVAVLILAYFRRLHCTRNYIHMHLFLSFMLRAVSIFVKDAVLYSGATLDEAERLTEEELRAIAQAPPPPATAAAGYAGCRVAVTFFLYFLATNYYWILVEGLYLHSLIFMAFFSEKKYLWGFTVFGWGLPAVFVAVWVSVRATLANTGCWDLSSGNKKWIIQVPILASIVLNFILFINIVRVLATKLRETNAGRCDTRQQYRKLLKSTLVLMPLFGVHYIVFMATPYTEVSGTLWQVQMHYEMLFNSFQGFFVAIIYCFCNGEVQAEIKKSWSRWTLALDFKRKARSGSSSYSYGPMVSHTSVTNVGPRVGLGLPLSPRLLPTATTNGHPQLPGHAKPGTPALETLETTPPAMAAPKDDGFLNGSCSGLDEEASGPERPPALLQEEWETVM
Description: Measurement of cAMP response. These assays were performed as previously described^27. […] Confluent monolayers of cells were pre-incubated with CO2 independent medium containing D-luciferin (0.5 mM) at 37° C. until a stable baseline level of luminescence was established (20 min). Varying concentrations of ligands were then added, and the time course of luminescence response was recorded using BioTek plate reader.
(§1) Data calculations. Data were processed using Microsoft Excel and GraphPad Prism 6. Data from cAMP dose-response assays were analyzed using a sigmoidal dose-response model with variable slope. Data sets were statistically compared by using Student's t test (two-tailed) assuming unequal variances for the two sets.

PTHR1YFPΔECD = experiment: cAMP induction in HEK293 cells stably expressing PTHR1YFPΔECD (YFP replaces extracellular domain); format: cell-based, human
Description: (§2) Measurement of cAMP response. These assays were performed as previously described^27. Briefly, HEK-293-derived cell lines that stably express the Glosensor cAMP reporter (Promega Corp.)^30 and PTHR1, a PTHR1 variant, or PTHR2 were seeded into white sided 96 well plates (50,000 cells/well) and grown to confluency. Confluent monolayers of cells were pre-incubated with CO2 independent medium containing D-luciferin (0.5 mM) at 37° C. until a stable baseline level of luminescence was established (20 min). Varying concentrations of ligands were then added, and the time course of luminescence response was recorded using BioTek plate reader.
as §1
(§3) The portion of PTHR1 encoded by exon 2 is not resolved in structural studies (FIG. 12—Panel d)^13, 14, 17, is not important for ligand binding^18, and in past work has been targeted as a site for receptor modification^18, 19. A construct was generated that encodes a PTHR1 variant in which a 14-residue fragment from exon 2 was replaced with a 14-mer epitope tag from the intracellular protein UBC6e (PTHR16E, FIG. 12—Panel d)^20. A receptor construct in which a pH-sensitive green fluorescent protein variant (GFP) was inserted into the portion of the receptor encoded by exon 2 (PTHR1GFP in FIGS. 17A to 17C)^19. Another version of PTHR1 in which yellow fluorescent protein (YFP) replaces the entire extracellular domain (PTHR1YFPΔECD, FIG. 12—Panel e)^21, was also used.

PTHR1GFP = experiment: cAMP induction in HEK293 cells stably expressing PTHR1GFP; format: cell-based, human
Description: The GFP-PTHR1 fusion was stably expressed in cells that respond to receptor engagement by activation of a cAMP-sensitive version of luciferase. Exposure of these transfectants to PTH(1-11) yielded the expected dose-response curve with half maximal stimulation at ˜200 nM.
as §2, with “reader. The maximal luminescence response (observed 12-16 min after ligand addition) was used to construct dose-response data sets (Table 4, FIGS. 22A to 22E).” for “reader.”
as §1
as §3, with “While there is no structural information for any VHH bound to PTHR1, a mode of interaction was envisioned between the receptor and VHH-PTH conjugates like that depicted in FIG. 12—Panel c. The” for “The”

human PTHR1 [2] = biological target: T1, human PTHR1; experiment: β-arrestin2-YFP recruitment in HEK293 cells transiently transfected with human PTHR1 (microscopy); format: cell-based; settings: 30 nM PTH(1-34)-TMR; 100 nM conjugate or VHH; 30 min room temperature
Description: FIGS. 30A-30F: Assessment of β-arrestin recruitment. A HEK293-derived cell line stably expressing a β-arrestin2-YFP fusion^2 was transiently transfected with human PTHR1. […] (red) and the nuclei of all cells were counterstained with DAPI. […] Panels show the same field of view with signal for β-arrestin2-YFP. […] (FIG. 30E) The ligands or VHHs (and concentrations) applied to these cells are VHHPTHR (100 nM). (FIG. 30F) The ligands or VHHs (and concentrations) applied to these cells are Vehicle. Transfected cells were incubated with indicated ligands or VHHs at room temperature for 30 minutes. This solution was aspirated, and the cells were washed twice, fixed with paraformaldehyde, and imaged as described in methods. For each panel the bottom image corresponds to an expanded version of the inset marked by the rectangle in the top image.

[3] = maximal cAMP response, normalized

CC[C@H](C)[C@H](NC(=O)[C@H](CCC(=O)O)NC(=O)[C@H](CO)NC(=O)[C@@H](NC(=O)[C@@H](N)CO)C(C)C)C(=O)N[C@@H](CCC(N)=O)C(=O)N[C@@H](CC(C)C)C(=O)N[C@@H](CCSC)C(=O)N[C@@H](Cc1cnc[nH]1)C(=O)N[C@@H](CC(N)=O)C(=O)N[C@@H](CC(C)C)C(=O)NCC(=O)N[C@@H](CCCCN)C(=O)N[C@@H](Cc1cnc[nH]1)C(=O)N[C@@H](CC(C)C)C(=O)N[C@@H](CC(N)=O)C(=O)N[C@@H](CO)C(=O)N[C@@H](CCSC)C(=O)N[C@@H](CCC(=O)O)C(=O)N[C@@H](CCCN=C(N)N)C(=O)N[C@H](C(=O)N[C@@H](CCC(=O)O)C(=O)N[C@@H](Cc1c[nH]c2ccccc12)C(=O)N[C@@H](CC(C)C)C(=O)N[C@@H](CCCN=C(N)N)C(=O)N[C@@H](CCCCN)C(=O)N[C@@H](CCCCN)C(=O)N[C@@H](CC(C)C)C(=O)N[C@@H](CCC(N)=O)C(=O)N[C@@H](CC(=O)O)C(=O)N[C@H](C(=O)N[C@@H](Cc1cnc[nH]1)C(=O)N[C@@H](CC(N)=O)C(=O)N[C@@H](Cc1ccccc1)C(=O)O)C(C)C)C(C)C [PTH(1-34)]
Max (normalized ± SD), hPTHR1 (human PTHR1 [1]): 1.00 ± 0.00
Max (normalized ± SD), hPTHR1YFPΔECD (PTHR1YFPΔECD; [3]): 1.00 ± 0.00
EC50 (PTHR1YFPΔECD; mean ± SD, Inactive = response <5% of maximal, read-out: EC50, cAMP induction, hPTHR1YFPΔECD): 689 ± 301 nM
Max (normalized ± SD), hPTHR1GFP (PTHR1GFP; [3]): 1.00 ± 0.00
EC50 (PTHR1GFP; mean ± SD, Inactive = response <5% of maximal, read-out: EC50, cAMP induction, hPTHR1GFP): 0.4 ± 0.8 nM
relocalization of YFP-tagged β-arrestin to puncta (human PTHR1 [2]): effectively stimulated
